{"source": "patent US11944628B2", "about": "“Methods for the use of low-dose immune modulators transiently for treating patients undergoing protein replacement therapy” (Duke University, priority 2017, dated 2024)", "key": {"[1]": {"system": "anti-rhGAA IgG antibodies", "conditions": "10 LOPD patients, 4 years, annual titers; cited from earlier work"}, "[2]": {"system": "anti-rhGAA IgG antibodies", "conditions": "LOTS, cited from earlier work"}, "[3]": {"system": "anti-rhGAA IgG antibodies", "assay": "Anti-rhGAA IgG antibody titers over time (ELISA, confirmed by radioimmunoprecipitation) in Pompe disease patients on ERT with TLD-MTX or on ERT monotherapy (comparators)", "format": "in vivo, human", "experimental": "Methotrexate at 0.4 mg/kg body weight was administered subcutaneously (or orally if subcutaneous administration was not possible) on three consecutive days/MTX cycle/infusion; with the first three ERT infusions (i.e., on Days 0, 14, and 28 for patients infused EOW) for a total of 3 cycles. On the day of ERT infusion, methotrexate was administered 15 minutes (if subcutaneous) or 1 hour (if oral) before infusion initiation and again on the following 2 days. To exemplify the schedule, in a patient receiving ERT infusion EOW, methotrexate was administered on Days 0, 1, and 2 (first cycle); Days 14, 15, and 16 (second cycle), and Days 28, 29, and 30 (third cycle). As stated earlier, the dose and frequency of ERT could be increased at the discretion of the treating physician, based on patients' clinical and IAR status, in which case methotrexate cycles were adjusted accordingly (see FIG. 2 for details).\nAnti-rhGAA IgG antibodies were determined by Sanofi Genzyme (Framingham, MA, USA) using enzyme-linked immunosorbent assays and confirmed using radioimmunoprecipitation as described previously (Kishnani et al. (2006) J. Pediatr. 149:89-97). Antibody analyses were recommended to be performed at Days −1, 28, 56, 84, 112, 140, 168, 196, 224, 252, 280, 308, 336, and 364.\nrhGAA IgG titers were determined over time. Patients were classified into HSAT (≥51,200 on ≥2 occasions at or beyond 6 months on ERT), sustained intermediate titer (SIT) (≥12,800 and <51,200 within the first year of ERT), and low titer (LT; ≤6,400 within the first year of ERT) groups based on the longitudinal anti-rhGAA IgG titers. […] Medians and ranges were determined for baseline, peak, and last titers, although our focus was on longitudinal titers through time because sustained titers affect clinical response.\nThe comparators received rhGAA alone. The GAA variant data and age at ERT initiation were compared with our cohort of TLD-MTX recipients. Immune responses over time were classified into HSAT, SIT, and LT as defined above, and time to seroconversion, peak titers, titers at Weeks 12, 24, and 52 were compared with our present cohort of TLD-MTX recipients."}, "[4]": {"system": "anti-rhGAA IgG antibodies", "conditions": "cited from earlier work"}}, "note": "Read-outs that look alike come from different tables or passages of the source."}
{"substance": "Alglucosidase alfa [ERT monotherapy]", "values": [{"measurement": "Highest antibody titer of any patient", "setting": "[1]", "value": "≤ 25,600"}, {"measurement": "Geometric mean titer, maximum", "setting": "[2]; LOPD, Week 44", "value": "2,925"}, {"measurement": "Geometric mean titer, last", "setting": "[2]; LOPD, Week 78", "value": "1,607"}, {"measurement": "Median last titer", "setting": "[2]; LOPD, Week 78", "value": "1,600"}, {"measurement": "Median peak titer", "setting": "[2]; LOPD, median time 12 weeks of alglucosidase alfa therapy", "value": "6,400"}, {"measurement": "Peak IgG titer quartile", "setting": "[2]; first quartile (n=17)", "value": "200-1,600"}, {"measurement": "Peak IgG titer quartile", "setting": "[2]; fourth quartile (n=14)", "value": "25,600-819,200"}, {"measurement": "Peak IgG titer quartile", "setting": "[2]; second quartile (n=12)", "value": "3,200"}, {"measurement": "Peak IgG titer quartile", "setting": "[2]; third quartile (n=16)", "value": "6,400-12,800"}, {"measurement": "Range of peak titers", "setting": "[3]; HSAT comparators (5/37)", "value": "51,200-409,600"}, {"measurement": "Group median last titer", "setting": "[3]; HSAT group of 37 CRIM-positive IOPD comparators, median time on ERT Week 94", "value": "102,400"}, {"measurement": "Median peak titers", "setting": "[3]; HSAT group, IOPD", "value": "204,800 (range, 51,200-409,600)"}, {"measurement": "Median titers (Week 12)", "setting": "[3]; HSAT group, IOPD", "value": "25,600"}, {"measurement": "Median titers (Week 24)", "setting": "[3]; HSAT group, IOPD", "value": "25,600"}, {"measurement": "Median titers (Week 52)", "setting": "[3]; HSAT group, IOPD", "value": "51,200"}, {"measurement": "Seroconversion week (median time to seroconversion)", "setting": "[3]; HSAT group, IOPD", "value": "≤ 4", "unit": "weeks"}, {"measurement": "Percent of patients in HSAT group", "setting": "[3]; HSAT: titers >=51,200 on >=2 occasions at or beyond 6 months on ERT, IOPD", "value": 13.5, "unit": "%"}, {"measurement": "Percent of patients who developed HSAT or SIT", "setting": "[3]; IOPD, comparator group n=37, TLD-MTX group n=14", "value": 32.4, "unit": "%"}, {"measurement": "Range of peak titers", "setting": "[3]; LT comparators (23/37 as printed)", "value": "200-12,800"}, {"measurement": "Group median last titer", "setting": "[3]; LT group of 37 CRIM-positive IOPD comparators, median time on ERT Week 130", "value": 400}, {"measurement": "Median peak titers", "setting": "[3]; LT group, IOPD", "value": "800 (range, 200-12,800)"}, {"measurement": "Median titers (Week 12)", "setting": "[3]; LT group, IOPD", "value": 400}, {"measurement": "Median titers (Week 24)", "setting": "[3]; LT group, IOPD", "value": 400}, {"measurement": "Seroconversion week (median time to seroconversion)", "setting": "[3]; LT group, IOPD", "value": 8, "unit": "weeks"}, {"measurement": "Median titers (Week 52)", "setting": "[3]; LT group, IOPD, seropositive titers <100 deemed 50", "value": 200}, {"measurement": "Percent of patients in LT group", "setting": "[3]; LT: titers <=6,400 within first year of ERT, IOPD", "value": 67.6, "unit": "%"}, {"measurement": "Range of peak titers", "setting": "[3]; SIT (IT) comparators (7/37)", "value": "12,800-51,000"}, {"measurement": "Group median last titer", "setting": "[3]; SIT group of 37 CRIM-positive IOPD comparators, median time on ERT Week 104", "value": "1,600"}, {"measurement": "Median peak titers", "setting": "[3]; SIT group, IOPD", "value": "25,600 (range, 12,800-51,200)"}, {"measurement": "Median titers (Week 12)", "setting": "[3]; SIT group, IOPD", "value": "12,800"}, {"measurement": "Median titers (Week 24)", "setting": "[3]; SIT group, IOPD", "value": "12,800"}, {"measurement": "Median titers (Week 52)", "setting": "[3]; SIT group, IOPD", "value": "3,200"}, {"measurement": "Seroconversion week (median time to seroconversion)", "setting": "[3]; SIT group, IOPD", "value": 4, "unit": "weeks"}, {"measurement": "Percent of patients in SIT group", "setting": "[3]; SIT: titers >=12,800 and <51,200 within first year of ERT, IOPD", "value": 18.9, "unit": "%"}, {"measurement": "Percent of patients with high antibody titers", "setting": "[4]; CRIM-positive IOPD, 9 of 23, Banugaria et al. (2011)", "value": 39, "unit": "%"}, {"measurement": "Percent of patients developing HSAT", "setting": "[4]; CRIM-positive patients with IOPD", "value": "~40", "unit": "%"}, {"measurement": "Percent of patients developing HSAT", "setting": "[4]; patients with LOPD", "value": 10, "unit": "%"}]}
